Measurements published in patent US20250340545A1, “TETRAHYDROISOQUINOLINE COMPOUND, PREPARATION METHOD THEREFOR, PHARMACEUTICAL COMPOSITION CONTAINING SAID COMPOUND, AND USE THEREOF” (SHANGHAI INSTITUTE OF MATERIA MEDICA, CHINESE ACADEMY OF …, priority 2022, published 2025).

How the values were obtained:
[1] = molecular target: T1, human RXFP4 (hRXFP4-CHO stably transfected cell line) (Homo sapiens, UniProt Q8TDU9); experiment: Measurement of intracellular cAMP concentration (in vitro RXFP4 agonist activity); format: cell-based; settings: hRXFP4-CHO cells, 500 nM Forskolin; for Emax ± S.E.M. (% INSL5): relative to INSL5
T1 construct: expressed in transfected cells; host or cells: CHO
T1 sequence (Q8TDU9 whole entry): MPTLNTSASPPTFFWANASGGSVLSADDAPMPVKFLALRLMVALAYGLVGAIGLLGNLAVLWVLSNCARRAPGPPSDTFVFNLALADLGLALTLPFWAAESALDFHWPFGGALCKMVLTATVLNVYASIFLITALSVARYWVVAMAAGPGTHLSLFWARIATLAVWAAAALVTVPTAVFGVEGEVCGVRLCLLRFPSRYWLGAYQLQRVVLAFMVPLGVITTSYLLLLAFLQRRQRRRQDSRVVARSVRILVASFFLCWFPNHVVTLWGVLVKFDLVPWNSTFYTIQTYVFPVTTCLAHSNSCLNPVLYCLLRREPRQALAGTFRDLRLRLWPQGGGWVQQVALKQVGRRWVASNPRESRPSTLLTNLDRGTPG
Experimental: 1. Detection Method: Measurement of Intracellular cAMP Concentration
CAMP detection kit (PerkinElmer), cell culture box (Thermo Fisher Scientific), EnVision multifunctional enzyme-linked immunosorbent assay (PerkinElmer), Forskolin (Sigma Aldrich), IBMX (Sigma Aldrich), DSMO (Sigma Aldrich), hINSL5 (Genova, human insulin-like peptide 5), hRXFP4-CHO stably transfected cell line for stable expression of human RXFP4, and test compound.
Stably transfected hRXFP4-CHO cells were seeded at 2.5×10^5 cells/mL the day before the experiment to maintain a growth density of 70%-80% in the culture dish the next day. On the day of the experiment, cells were digested with trypsin free digestion solution or 0.02% EDTA PBS solution, centrifugated, the supernatant was discarded, and cAMP experimental buffer (0.5 mM IBMX+5 mM HEPES+0.1% BSA) was prepared using 1×HBSS (calcium and magnesium free) solution. The cells were resuspended and inoculated to a 384 well plate at 4000 cells per well. The compound which was diluted with DMSO to different concentrations were added to the above 384 well plate. At the same time, 500 nM Forskolin was added and incubated at room temperature for 40 minutes. Then Eu cAMP and ULight anti cAMP working solutions were added according to the cAMP detection kit instructions. After incubation at room temperature for 40 minutes, an EnVision multifunctional enzyme-linked immunosorbent assay reader was used to read the results (excitation wavelength of 320 or 340 nm, detection emission wavelength of 665 nm).

[2] = molecular target: T2, RXFP4 (HRXFP4 CHO cells) (Homo sapiens, UniProt Q8TDU9); experiment: Ligand receptor affinity detection (Eu-R3/I5 competition on HRXFP4 CHO cells); format: binding; settings: for Ki: 5 nM Eu-R3/I5, 1 hour room temperature, read-out: pKi ± S.E.M. (converted); for Span ± S.E.M. (% R3/I5): 5 nM Eu-R3/I5, relative to R3/I5
T2 construct: expressed in transfected cells; host or cells: CHO
T2 sequence (Q8TDU9 whole entry): as above
Experimental: 2. Detection Method: Ligand Receptor Affinity Detection
Stably transfected HRXFP4 CHO cells and Eu—R3/I5 (lanthanide element europium labeled chimeric peptide R3/I5), BMG POLARstar reader (BMG Labtech), and test compound.
HRXFP4 CHO was introduced into a 96 well plate at 80000 cells per well. After 24 hours of cell culture in the incubator, discarded the supernatant, and washed once with PBS, then a binding buffer containing 1% BSA was added and incubated at room temperature for 1 hour. The cell plate was then washed once with PBS, followed by the addition of different concentrations of positive controls and test compounds, and incubated at room temperature with 5 nM Eu—R3/I5 for 1 hour.
After washing the cell plate once with PBS, an enhancement solution was added. After 45 minutes, the fluorescence value was measured using a BMG POLARstar reader (excitation wavelength of 340 nm, detection emission wavelength of 614 nm).

| SMILES | EC50 ([1]; 40 minutes room temperature) | Emax ± S.E.M. (% INSL5) [1] | Ki [2] | pEC50 ± S.E.M. ([1]; 40 minutes room temperature) | Span ± S.E.M. (% R3/I5) [2] |
| --- | --- | --- | --- | --- | --- |
| CCOc1cc2c(cc1OC)CCN(C(=O)N1CCOCC1)[C@H]2CCc1c[nH]c2ccc(OC)cc12 [(S)-A1, (S)-(7-ethoxy-6-methoxy-1-(2-(5-methoxy-1H-indol-3-yl)ethyl)-3,4-dihydroisoquinolin-2(1H)-yl)(morpholino)methanone] | – | 98.76 ± 5.71 % INSL5 | 58.9 nM | 7.24 ± 0.12 | 81.87 ± 4.47 % R3/I5 |
| CCOc1cc2c(cc1OC)CCN(C(=O)N1CC[S+]([O-])CC1)C2CCc1c[nH]c2ccc(OC)cc12 (stereo not drawn) [Compound A5, (7-ethoxy-6-methoxy-1-(2-(5-methoxy-1H-indol-3-yl)ethyl)-3,4-dihydroisoquinolin-2(1H)-yl)(1-oxothiomorpholinyl)methanone] | 10200 nM | 56.43 ± 4.70 % INSL5 | > 100000 nM | – | – |
| CCOc1cc2c(cc1OC)CCN(C(=O)N1CCS(=O)(=O)CC1)C2CCc1c[nH]c2ccc(OC)cc12 (stereo not drawn) [Compound A6, (1,1-dioxothiomorpholino) (7-ethoxy-6-methoxy-1-(2-(5-methoxy-1H-indol-3-yl)ethyl)-3,4-dihydroisoquinolin-2(1H)-yl)methylmethanone] | 9330 nM | 51.74 ± 6.72 % INSL5 | > 100000 nM | – | – |
| CCOc1cc2c(cc1OC)CCN(C(=O)c1ccccn1)C2CCc1c[nH]c2ccc(OC)cc12 (stereo not drawn) [Compound A9, (7-ethoxy-6-methoxy-1-(2-(5-methoxy-1H-indol-3-yl)ethyl)-3,4-dihydroisoquinolin-2(1H)-yl) (pyridin-2-yl)methanone] | 14800 nM | 44.09 ± 5.25 % INSL5 | > 100000 nM | – | – |
| CCOc1cc2c(cc1OC)CCN(C(=O)N1CCOCC1)C2CCc1c[nH]c2ncccc12 (stereo not drawn) [Compound A69, (1-(2-(1H-pyrrolo[2,3-b]pyridin-3-yl)ethyl)-7-ethoxy-6-methoxy-3,4-dihydroisoquinolin-2(1H)-yl) (morpholino)methanone] | 10000 nM | 58.19 ± 7.80 % INSL5 | > 100000 nM | – | – |
| COc1cc2c(cc1OC)[C@H](CCc1c[nH]c3cc(C)ccc13)N(C(=O)C1CCOCC1)CC2 [Compound A76, (S)-(6,7-dimethoxy-1-(2-(6-methyl-1H-indol-3-yl)ethyl)-3,4-dihydroisoquinolin-2(1H)-yl) (tetrahydro-2H-pyran-4-yl)methanone] | 3160 nM | 43.69 ± 7.43 % INSL5 | > 100000 nM | – | – |
| CCOc1cc2c(cc1OC)CCN(C(=O)c1cscn1)[C@H]2CCc1c[nH]c2ccc(OC)cc12 [Compound A80, (S)-(7-ethoxy-6-methoxy-1-(2-(5-methoxy-1H-indol-3-yl)ethyl)-3,4-dihydroisoquinolin-2(1H)-yl) (thiazol-4-yl)methanone] | – | – | > 100000 nM | – | – |
| COc1cc2c(cc1OC)C(Cc1c[nH]c3ccccc13)N(CC1CCOCC1)CC2 (stereo not drawn) [Compound A83] | – | – | > 100000 nM | – | – |

Next, values leading:

| EC50 ([1]; 40 minutes room temperature) | Emax ± S.E.M. (% INSL5) [1] | Ki [2] | pEC50 ± S.E.M. ([1]; 40 minutes room temperature) | Span ± S.E.M. (% R3/I5) [2] | SMILES |
| --- | --- | --- | --- | --- | --- |
| 933 nM | 60.14 ± 10.64 % INSL5 | > 100000 nM | – | – | CCOc1cc2c(cc1OC)CCN(C(=O)N1CCOCC1)[C@@H]2CCc1c[nH]c2ccc(OC)cc12 [(R)-A1, (R)-(7-ethoxy-6-methoxy-1-(2-(5-methoxy-1H-indol-3-yl)ethyl)-3,4-dihydroisoquinolin-2(1H)-yl)(morpholino)methanone] |
| 87.1 nM | 87.64 ± 4.58 % INSL5 | 148 nM | – | 88.98 ± 6.07 % R3/I5 | CCOc1cc2c(cc1OC)CCN(C(=O)N1CCOCC1)C2CCc1c[nH]c2ccc(OC)cc12 (stereo not drawn) [Compound A1, (7-ethoxy-6-methoxy-1-(2-(5-methoxy-1H-indol-3-yl)ethyl)-3,4-dihydroisoquinolin-2(1H)-yl) (morpholino)methanone] |
| 204 nM | 101.82 ± 9.08 % INSL5 | 209 nM | – | 86.26 ± 6.71 % R3/I5 | CCOc1cc2c(cc1OC)CCN(C(=O)N1CCC(F)CC1)C2CCc1c[nH]c2ccc(OC)cc12 (stereo not drawn) [Compound A3, (4-fluoropiperidin-1-yl) (7-ethoxy-6-methoxy-1-(2-(5-methoxy-1H-indol-3-yl)ethyl)-3,4-dihydroisoquinolin-2(1H)-yl)methanone] |
| 57.5 nM | 62.00 ± 5.42 % INSL5 | 631 nM | – | 66.34 ± 7.29 % R3/I5 | CCOc1cc2c(cc1OC)CCN(C(=O)N1CCC(F)(F)CC1)C2CCc1c[nH]c2ccc(OC)cc12 (stereo not drawn) [Compound A4, (4,4-difluoropiperidin-1-yl) (7-ethoxy-6-methoxy-1-(2-(5-methoxy-1H-indol-3-yl)ethyl)-3,4-dihydroisoquinolin-2(1H)-yl)methanone] |
| 427 nM | 82.33 ± 8.47 % INSL5 | 851 nM | – | 81.61 ± 7.65 % R3/I5 | COc1ccc2[nH]cc(CCC3c4cc(OCc5ccccc5)c(OC)cc4CCN3C(=O)N3CCOCC3)c2c1 (stereo not drawn) [Compound A30, (7-(benzyloxy)-6-methoxy-1-(2-(5-methoxy-1H-indol-3-yl)ethyl)-3,4-dihydroisoquinolin-2(1H)-yl) (morpholino)methanone] |
| 27.5 nM | 82.15 ± 4.95 % INSL5 | 129 nM | – | 92.06 ± 3.95 % R3/I5 | CCOc1cc2c(cc1OC)CCN(C(=O)N1CCOCC1)C2CCc1c[nH]c2ccc(C#N)cc12 (stereo not drawn) [Compound A57, 3-(2-(7-ethoxy-6-methoxy-2-(morpholine-4-carbonyl)-1,2,3,4-tetrahydroisoquinolin-1-yl)ethyl)-1H-indole-5-carbonitrile] |
| 447 nM | 92.58 ± 7.46 % INSL5 | > 100000 nM | – | – | CCOc1cc2c(cc1OC)CCN(C(=O)N1CCOCC1)C2CCc1c[nH]c2c(C)cc(OC)cc12 (stereo not drawn) [Compound A58, (7-ethoxy-6-methoxy-1-(2-(5-methoxy-7-methyl-1H-indol-3-yl)ethyl)-3,4-dihydroisoquinolin-2(1H)-yl)(morpholino) methanone] |
| 417 nM | 72.49 ± 8.04 % INSL5 | 1700 nM | – | 75.02 ± 7.56 % R3/I5 | CCOc1cc2c(cc1OC)CCN(C(=O)N1CCOCC1)C2CCc1c[nH]c2c(CC)cccc12 (stereo not drawn) [Compound A60, (7-Ethoxy-1-(2-(7-ethyl-1H-indol-3-yl)ethyl)-6-methoxy-3,4-dihydroisoquinolin-2(1H)-yl) (morpholino)methanone] |
| 437 nM | 25.96 ± 5.50 % INSL5 | > 100000 nM | – | – | COc1cc2c(cc1OC)C(CCc1c[nH]c3ccccc13)N(C(=O)c1ccncc1)CC2 (stereo not drawn) [Compound A77, (1-(2-(1H-indol-3-yl)ethyl)-6,7-dimethoxy-3,4-dihydroisoquinolin-2(1H)-yl)(pyridin-4-yl)methanone] |
